# Tests used:
# EV71 = experiment: In-vitro experiment against EV71 virus (RD cells, MTT); type: cell-based; conditions: for EC50: Enterovirus A, RD cells infected with 100x TCID50 EV71, compound added after 2 hrs, MTT at 48 hrs; for SI: selectivity index, EV71, RD cells
# Protocol: (§1) RD cells were seeded into a 96-well plate (10^4 cells/well), and infected with 100× TCID50 of EV71 viruses. After 2 hrs, various concentrations of the derivative were added. […] Uninfected cells were also given various concentrations of the derivative to determine the CC50.
# CAV16 = experiment: In-vitro experiment against Coxsackievirus A16 (CAV16) (RD cells, MTT); type: cell-based, Coxsackievirus Virus A16 (CAV16); conditions: for EC50: Coxsackievirus, RD cells infected with 100x TCID50 CAV16, compound added after 2 hrs, MTT at 48 hrs; for SI: selectivity index, CAV16, RD cells
# Protocol: (§2) RD cells were seeded into a 96-well plate (10^4 cells/well), and infected with 100×TCID50 of CAV16 viruses. After 2 hrs, various concentrations of the derivative were added. […] Uninfected cells were also given various concentrations of the derivative to determine the CC50.
# [1] = Cytotoxicity in uninfected RD cells (CC50, MTT); type: cell-based; conditions: human, Table 1
# Protocol: as §1, §2
# [2] = test system: Salmonella typhimurium TA100; experiment: Test of reverse mutation in histidine-deficient Salmonella typhimurium, strain TA100; type: cell-based; conditions: for Number of colonies TA100(+S9): solvent control 170.7 ± 10.9
# Protocol: (§3) The mutagenic effect of Compound 6 on the strains TA100 and TA102 was detected by determining the reverse mutation in histidine-deficient Salmonella typhimurium by pre-loaded culture dish method. The dosage of Compound 6 is 8, 40, 200, 1000, or 5000 μg/dish under activated and non-activated conditions, and the mutagenic effects on TA100 and TA102 were tested.
# [3] = test system: Salmonella typhimurium TA102; experiment: Test of reverse mutation in histidine-deficient Salmonella typhimurium, strain TA102; type: cell-based; conditions: for Number of colonies TA102(−S9): solvent control 225.0 ± 7.5; for Number of colonies TA102(+S9): solvent control 236.5 ± 5.0
# Protocol: as §3
# [4] = Toxicity test in ICR mice after single administration by intraperitoneal injection; type: in vivo; conditions: for minimum lethal dose: 10-day-old ICR mice, single intraperitoneal injection, observed 14 days; for MTD at 14 days: both sexes, ICR; for MTD at 14 days / Weight on day 1 after administration: mouse, in vivo, ip
# Protocol: 22 10-day-old ICR mice were randomly assigned to 17 groups, and given Compound 6 once by intraperitoneal injection at a dosage of 0.625, 1.25, 2.5, 5, 10, 20, 40, 80, 100, 160, 200, 250, 300, 470, 500, 1000, or 2000 mg/kg. 1-2 animals were included in each group, and the male and female mice were administered alternately. […] The dead animals are necropsied and the changes in main organs were observed. On day 1 after administration, the weight of the animals in the 160 mg/kg group is decreases by 0.3 g, and the weight of the animals in the 0.625, 1.25, 2.5, 5, 10, 20, 40, 80, 100 mg/kg group is increased, compared to the day of administration. Under the conditions in this experiment, ICR mice were given Compound 6 once by intraperitoneal injection. The minimum lethal dose was 200 mg/kg and the maximum tolerated dose was 160 mg/kg.
# 24 10-day-old ICR mice were randomly assigned to 19 groups, and given Compound 6 once by intraperitoneal injection at a dosage of 0.625, 1.25, 2.5, 5, 10, 20, 40, 60, 80, 100, 120, 136, 160, 270, 320, 500, 690, 1000, or 2000 mg/kg. 1-2 animals were included in each group, and the male and female mice were administered alternately. […] The dead animals are necropsied and the changes in main organs were observed. […] Under the conditions in this experiment, ICR mice were given Compound 20 once by intraperitoneal injection.
# [5] = 8-5000 μg/dish, activated and non-activated conditions
smiles,measurement,setting,value
"O=C(CSc1ccccc1)OC1C(O)C=C2CCN3Cc4cc5c(cc4C1C23)OCO5 (stereo not drawn) [Compound 2, 1-phenylthioacetyl-lycorine]",EC50,EV71,1650 nM
same,SI,EV71,69.35
same,EC50,CAV16,570 nM
same,SI,CAV16,200.73
same,CC50 at 48 h,[1],114 µM
"O=C(COc1ccc(Cl)cc1)OC1C(O)C=C2CCN3Cc4cc5c(cc4C1C23)OCO5 (stereo not drawn) [Compound 3, 1-(4-chloro-phenoxyacetyl)-lycorine]",EC50,EV71,1280 nM
same,SI,EV71,139.85
same,CC50 at 48 h,[1],154 µM
"O=C(CCCOc1ccccc1)OC1C(O)C=C2CCN3Cc4cc5c(cc4C1C23)OCO5 (stereo not drawn) [Compound 4, 1-(4-phenoxybutyryl)-lycorine]",EC50,EV71,1760 nM
same,SI,EV71,84.84
same,CC50 at 48 h,[1],150 µM
"O=C(CCOc1ccccc1)OC1C(O)C=C2CCN3Cc4cc5c(cc4C1C23)OCO5 (stereo not drawn) [Compound 5, 1-(3-phenoxypropionyl)-lycorine]",EC50,EV71,1450 nM
same,SI,EV71,92.43
same,CC50 at 48 h,[1],134 µM
"O=C(COc1ccc(F)cc1)OC1C(O)C=C2CCN3Cc4cc5c(cc4C1C23)OCO5 (stereo not drawn) [Compound 6, 1-(4-fluoro-phenoxyacetyl)-lycorine]",Number of colonies TA100(−S9),"[2]; 8 μg/dish, solvent control 165.3 ± 10.7",152.7 ± 9.4
same,Number of colonies TA100(+S9),[2]; 8 μg/dish,159.3 ± 11.3
same,Number of colonies TA100(−S9),"[2]; 40 μg/dish, solvent control 165.3 ± 10.7",141.8 ± 5.9
same,Number of colonies TA100(+S9),[2]; 40 μg/dish,158.7 ± 10.7
same,Number of colonies TA100(−S9),"[2]; 200 μg/dish, solvent control 165.3 ± 10.7",152.7 ± 9.5
same,Number of colonies TA100(+S9),[2]; 200 μg/dish,158.5 ± 11.5
same,Number of colonies TA100(−S9),"[2]; 1000 μg/dish, solvent control 165.3 ± 10.7",113.0 ± 14.2
same,Number of colonies TA100(+S9),[2]; 1000 μg/dish,127.7 ± 10.1
same,Number of colonies TA100(−S9),"[2]; 5000 μg/dish, solvent control 165.3 ± 10.7",110.5 ± 7.8
same,Number of colonies TA100(+S9),[2]; 5000 μg/dish,114.7 ± 3.8
same,mutagenic effect on TA100,[2]; [5],negative
same,EC50,EV71,1270 nM
same,SI,EV71,103.30
same,Number of colonies TA102(−S9),[3]; 8 μg/dish,223.0 ± 9.1
same,Number of colonies TA102(+S9),[3]; 8 μg/dish,235.0 ± 9.6
same,Number of colonies TA102(−S9),[3]; 40 μg/dish,205.0 ± 14.6
same,Number of colonies TA102(+S9),[3]; 40 μg/dish,222.5 ± 9.3
same,Number of colonies TA102(−S9),[3]; 200 μg/dish,192.8 ± 18.6
same,Number of colonies TA102(+S9),[3]; 200 μg/dish,208.3 ± 6.8
same,Number of colonies TA102(−S9),[3]; 1000 μg/dish,182.3 ± 10.3
same,Number of colonies TA102(+S9),[3]; 1000 μg/dish,195.2 ± 8.6
same,Number of colonies TA102(−S9),[3]; 5000 μg/dish,147.2 ± 20.3
same,Number of colonies TA102(+S9),[3]; 5000 μg/dish,180.7 ± 11.7
same,mutagenic effect on TA102,[3]; [5],negative
same,CC50 at 48 h,[1],131 µM
same,minimum lethal dose,[4],200 mg/kg
same,MTD at 14 days,[4],160 mg/kg
same,Weight on day 1 after administration,[4]; 0.625 mg/kg,7.3
same,Weight on day 1 after administration,[4]; 5 mg/kg,6.9
same,Weight on day 1 after administration,[4]; 10 mg/kg,6.5
same,Weight on day 1 after administration,[4]; 20 mg/kg,7.5
same,Weight on day 1 after administration,[4]; 40 mg/kg,7.7
same,Weight on day 1 after administration,[4]; 80 mg/kg,7.3
same,Weight on day 1 after administration,[4]; 100 mg/kg,7.3
same,Weight on day 1 after administration,[4]; 160 mg/kg,6.3
"O=C(COc1ccc(Br)cc1)OC1C(O)C=C2CCN3Cc4cc5c(cc4C1C23)OCO5 (stereo not drawn) [Compound 7, 1-(4-bromo-phenoxyacetyl)-lycorine]",EC50,EV71,1470 nM
same,SI,EV71,70.36
same,CC50 at 48 h,[1],103 µM
"O=C(COc1ccc([N+](=O)[O-])cc1)OC1C(O)C=C2CCN3Cc4cc5c(cc4C1C23)OCO5 (stereo not drawn) [Compound 8, 1-(4-nitro-phenoxyacetyl)-lycorine]",EC50,EV71,1230 nM
same,SI,EV71,85.67
same,CC50 at 48 h,[1],105 µM
"O=C(COc1ccc(I)cc1)OC1C(O)C=C2CCN3Cc4cc5c(cc4C1C23)OCO5 (stereo not drawn) [Compound 9, 1-(4-iodo-phenoxyacetyl)-lycorine]",EC50,EV71,1840 nM
same,SI,EV71,54.15
same,CC50 at 48 h,[1],99.6 µM
"CC(C)c1ccc(OCC(=O)OC2C(O)C=C3CCN4Cc5cc6c(cc5C2C34)OCO6)cc1 (stereo not drawn) [Compound 10, 1-(4-isopropyl-phenoxyacetyl)-lycorine]",EC50,EV71,1670 nM
same,SI,EV71,60.63
same,CC50 at 48 h,[1],101 µM
"O=C(CSc1ccc(Cl)cc1)OC1C(O)C=C2CCN3Cc4cc5c(cc4C1C23)OCO5 (stereo not drawn) [Compound 11, 1-(4-chloro-phenylthioacetyl)-lycorine]",EC50,EV71,1460 nM
same,SI,EV71,89.40
same,CC50 at 48 h,[1],131 µM
"Cc1ccc(OCC(=O)OC2C(O)C=C3CCN4Cc5cc6c(cc5C2C34)OCO6)cc1 (stereo not drawn) [Compound 12, 1-(4-methylphenoxyacetyl)-lycorine]",EC50,EV71,1530 nM
same,SI,EV71,87.73
same,CC50 at 48 h,[1],134 µM
"Cc1ccc(OCC(=O)OC2C(O)C=C3CCN4Cc5cc6c(cc5C2C34)OCO6)c(C)c1 (stereo not drawn) [Compound 13, 1-(2,4-dimethyl-phenoxyacetyl)-lycorine]",EC50,EV71,1560 nM
same,SI,EV71,95.33
same,CC50 at 48 h,[1],149 µM
"O=C(COc1ccccc1Cl)OC1C(O)C=C2CCN3Cc4cc5c(cc4C1C23)OCO5 (stereo not drawn) [Compound 14, 1-(2-chloro-phenoxyacetyl)-lycorine]",EC50,EV71,1630 nM
same,SI,EV71,89.10
same,CC50 at 48 h,[1],145 µM
"O=C(COc1cccc(Cl)c1)OC1C(O)C=C2CCN3Cc4cc5c(cc4C1C23)OCO5 (stereo not drawn) [Compound 15, 1-(3-chloro-phenoxyacetyl)-lycorine]",EC50,EV71,1730 nM
same,SI,EV71,87.61
same,CC50 at 48 h,[1],152 µM
"O=C(COc1ccc(Cl)cc1Cl)OC1C(O)C=C2CCN3Cc4cc5c(cc4C1C23)OCO5 (stereo not drawn) [Compound 16, 1-(2,4-dichloro-phenoxyacetyl)-lycorine]",EC50,EV71,1710 nM
same,SI,EV71,75.94
same,CC50 at 48 h,[1],130 µM
O=C(COc1ccccc1[N+](=O)[O-])OC1C(O)C=C2CCN3Cc4cc5c(cc4C1C23)OCO5 (stereo not drawn) [Compound 17],EC50,EV71,1710 nM
same,SI,EV71,91.37
same,CC50 at 48 h,[1],156 µM
"COc1ccc(OCC(=O)OC2C(O)C=C3CCN4Cc5cc6c(cc5C2C34)OCO6)cc1 (stereo not drawn) [Compound 18, 1-(4-methoxy-phenoxyacetyl)-lycorine]",EC50,EV71,1650 nM
same,SI,EV71,97.65
same,CC50 at 48 h,[1],161 µM
"O=C(COc1ccc2ccccc2c1)OC1C(O)C=C2CCN3Cc4cc5c(cc4C1C23)OCO5 (stereo not drawn) [Compound 19, 1-(2-naphthyl-phenoxyacetyl)-lycorine]",EC50,EV71,1970 nM
same,SI,EV71,82.94
same,CC50 at 48 h,[1],163 µM
"O=C(CSc1ccc(F)cc1)OC1C(O)C=C2CCN3Cc4cc5c(cc4C1C23)OCO5 (stereo not drawn) [Compound 20, 1-(4-fluoro-phenylthioacetyl)-lycorine]",minimum lethal dose,[4],160 mg/kg
same,MTD at 14 days,[4],136 mg/kg
same,Weight on day 1 after administration,[4]; 0.625 mg/kg,5.2
same,Weight on day 1 after administration,[4]; 1.25 mg/kg,6.6
same,Weight on day 1 after administration,[4]; 5 mg/kg,6.4
same,Weight on day 1 after administration,[4]; 10 mg/kg,6.5
same,Weight on day 1 after administration,[4]; 20 mg/kg,5.9
same,Weight on day 1 after administration,[4]; 40 mg/kg,6.8
same,Weight on day 1 after administration,[4]; 60 mg/kg,7
same,Weight on day 1 after administration,[4]; 100 mg/kg,6.8
same,Weight on day 1 after administration,[4]; 136 mg/kg,6.7
"O=C(CCc1ccccc1)OC1C(O)C=C2CCN3Cc4cc5c(cc4C1C23)OCO5 (stereo not drawn) [Compound 23, 1-(3-phenylpropionyl)-lycorine]",EC50,EV71,1730 nM
same,SI,EV71,74.28
same,CC50 at 48 h,[1],129 µM
O[C@H]1[C@H]2c3cc4c(cc3CN3CCC(=C[C@@H]1O)[C@H]23)OCO4 [Lycorine],EC50,EV71,2260 nM
same,SI,EV71,46.24
same,EC50,CAV16,1570 nM
same,SI,CAV16,66.57
same,CC50 at 48 h,[1],105 µM
"[N-]=[N+]=[N-].[Na+] [NaN3, reference compound]",Number of colonies TA100(−S9),"[2]; 1.5 μg/dish, positive control",>1000

# Reference: patent US11932653B2, “Lycorine derivative, and pharmaceutical composition and use thereof” (priority 2018, dated 2024)
